{"source": "patent US12371454B2", "about": "“Cyclic peptide compound having Kras inhibitory action” (priority 2019, dated 2025)", "note": "pIC50: −log10 of the molar value. Starred links: 1 amine or outer side, 2 acyl side, 3 side chain; linkers in the order of their positions; H or OH if unused. Positions of bridges follow the written chain, without caps; N, C: chain ends. Non-standard residues stand in square brackets, D forms with d. Residues, ends and D or L forms follow the SMILES beside them. *: point of attachment. hPhe(3,5-F2-4-CF3) = N[C@@H](CCc1cc(F)c(C(F)(F)F)c(F)c1)C(=O)O; hPhe(3-Cl-4-CF3) = N[C@@H](CCc1ccc(C(F)(F)F)c(Cl)c1)C(=O)O; NMePhe(4-CF3) = CN[C@@H](Cc1ccc(C(F)(F)F)cc1)C(=O)O; hPhe(4-CF3) = N[C@@H](CCc1ccc(C(F)(F)F)cc1)C(=O)O; NMePhe(4-Cl) = CN[C@@H](Cc1ccc(Cl)cc1)C(=O)O; NMedβ3hAla = C[C@H](CC(=O)[*:2])N(C)[*:1]; NMeAla(cPent) = CN[C@@H](CC1CCCC1)C(=O)O; Phe(3-Cl) = N[C@@H](Cc1cccc(Cl)c1)C(=O)O; NMeGly(cPent) = CN[C@H](C(=O)O)C1CCCC1; Pro(4,4-F2) = O=C(O)[C@@H]1CC(F)(F)CN1; NMeCha = CN[C@@H](CC1CCCCC1)C(=O)O; Gly(N-(CH2)2OEt) = CCOCCNCC(=O)O; NMeF = CN[C@@H](Cc1ccccc1)C(=O)O; NMeI = CC[C@H](C)[C@H](NC)C(=O)O; NMeD = CN[C@@H](CC(=O)O)C(=O)O; NMeL = CN[C@@H](CC(C)C)C(=O)O; NMeNle = CCCC[C@H](NC)C(=O)O; NMeV = CN[C@H](C(=O)O)C(C)C; d(β3hA) = C[C@@H](N)CC(=O)O; NMeA = CN[C@@H](C)C(=O)O; NMeAib = CNC(C)(C)C(=O)O; Piperidide = C1CCN(*)CC1; Pyrrolidide = C1CCN(*)C1; dNMeA = CN[C@H](C)C(=O)O; Ac5c = NC1(C(=O)O)CCCC1; Aze = O=C(O)[C@@H]1CCN1; βAla = NCCC(=O)O; Sar = CNCC(=O)O", "data": [{"molecular_target": "T1, Kras and SOS1 (biotin-tagged human Kras loaded with GDP, His-tagged human SOS1) (Homo sapiens, UniProt P01116, G12D)", "T1 construct": "made in house; host or cells: E. coli (stated for Kras only)", "T1 sequence (P01116 1-188 isoform P01116-2 G12D)": "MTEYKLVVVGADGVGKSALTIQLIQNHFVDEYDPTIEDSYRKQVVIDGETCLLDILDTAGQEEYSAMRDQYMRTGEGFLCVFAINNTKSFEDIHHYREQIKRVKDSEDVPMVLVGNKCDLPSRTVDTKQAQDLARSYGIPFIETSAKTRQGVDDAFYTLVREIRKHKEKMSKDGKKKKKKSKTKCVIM", "experiment": "Protein-protein interaction inhibition between Kras and SOS1 (KrasGl2D-SOS PPI) using AlphaScreen", "type": "binding", "conditions": "AlphaScreen; biotin-tagged human Kras loaded with GDP, His-tagged human SOS1; read-out: KRAS G12D-SOS PPI IC50", "procedure,_shortened": "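Kras was produced in E. coli, purified, then loaded with GDP. It was paired via streptavidin acceptor beads with His-SOS1 held on nickel donor beads, and proximity signal at 520-620 nm was read after 680 nm illumination.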", "values": [{"smiles": "CC[C@H](C)[C@@H]1NC(=O)[C@H](CC(C)C)N(C)C(=O)C[C@@H](C)N(C)C(=O)[C@H](C2CCCC2)N(C)C(=O)C2(CCCC2)NC(=O)[C@@H]2CC(F)(F)CN2C(=O)[C@H](CCc2cc(F)c(C(F)(F)F)c(F)c2)NC(=O)CN(C)C(=O)[C@H](CC2CCCCC2)N(C)C(=O)[C@@H]2CCN2C(=O)[C@H](C)N(C)C1=O", "note": "[Compound 628] (cyclo([Ac5c][NMeGly(cPent)][NMedβ3hAla][NMeL]I[NMeA][Aze][NMeCha][Sar][hPhe(3,5-F2-4-CF3)][Pro(4,4-F2)]))", "pIC50": 7.70}, {"smiles": "CC[C@H](C)[C@@H]1NC(=O)[C@H](CC(C)C)N(C)C(=O)C[C@@H](C(=O)N2CCCC2)N(C)C(=O)[C@H]([C@@H](C)CC)N(C)C(=O)C2(CCCC2)NC(=O)[C@@H]2CCCN2C(=O)[C@H](CCc2cc(F)c(C(F)(F)F)c(F)c2)NC(=O)CN(C)C(=O)[C@H](Cc2ccc(C(F)(F)F)cc2)N(C)C(=O)[C@@H]2CCN2C(=O)[C@H](C)N(C)C1=O", "note": "[Compound 1343] ([NMeL]I[NMeA][Aze][NMePhe(4-CF3)][Sar][hPhe(3,5-F2-4-CF3)]P[Ac5c][NMeI][NMeD]-Pyrrolidide; lactam N-11)", "pIC50": 9.21}, {"smiles": "CC[C@H](C)[C@@H]1NC(=O)[C@H](CC(C)C)N(C)C(=O)C[C@@H](C(=O)N(C)C)N(C)C(=O)[C@H](C2CCCC2)N(C)C(=O)C2(CCCC2)NC(=O)[C@@H]2CCCN2C(=O)[C@H](CCc2ccc(C(F)(F)F)c(Cl)c2)NC(=O)CN(C)C(=O)[C@H](CC2CCCCC2)N(C)C(=O)CN(C)C(=O)CN(C)C1=O", "note": "[Compound 1659] ([NMeL]I[Sar][Sar][NMeCha][Sar][hPhe(3-Cl-4-CF3)]P[Ac5c][NMeGly(cPent)][NMeD]-NMe2; lactam N-11)", "pIC50": 9.42}, {"smiles": "CC[C@H](C)[C@@H]1NC(=O)[C@H](C)N(C)C(=O)CCNC(=O)[C@H](CC(C)C)N(C)C(=O)[C@H](Cc2ccccc2)N(C)C(=O)[C@@H]2CCCN2C(=O)[C@H](CCc2ccc(C(F)(F)F)cc2)NC(=O)CN(C)C(=O)[C@H](Cc2ccc(Cl)cc2)N(C)C(=O)CN(C)C(=O)CN(C)C1=O", "note": "[Compound 1086] (cyclo(I[Sar][Sar][NMePhe(4-Cl)][Sar][hPhe(4-CF3)]P[NMeF][NMeL][βAla][NMeA]))", "pIC50": 6.74}, {"smiles": "CC[C@H](C)[C@@H]1NC(=O)[C@H](CC(C)C)N(C)C(=O)C[C@@H](C(=O)N2CCCCC2)N(C)C(=O)[C@H](C(C)C)N(C)C(=O)C2(CCCC2)NC(=O)[C@@H]2CCCN2C(=O)[C@H](CCc2ccc(C(F)(F)F)c(Cl)c2)NC(=O)CN(C)C(=O)[C@H](CC2CCCCC2)N(C)C(=O)[C@@H]2CCN2C(=O)[C@H](CC2CCCC2)N(C)C1=O", "note": "[Compound 1552] ([NMeL]I[NMeAla(cPent)][Aze][NMeCha][Sar][hPhe(3-Cl-4-CF3)]P[Ac5c][NMeV][NMeD]-Piperidide; lactam N-11)", "pIC50": 7.21}, {"smiles": "CC[C@H](C)[C@@H]1NC(=O)[C@H](C)N(C)C(=O)C[C@@H](C(=O)N2CCCC2)NC(=O)[C@H](CC(C)C)NC(=O)[C@H](Cc2ccccc2)N(C)C(=O)[C@H](CC(C)C)NC(=O)[C@H](Cc2cccc(Cl)c2)NC(=O)CN(C)C(=O)[C@H](Cc2ccc(Cl)cc2)N(C)C(=O)CN(C)C(=O)CN(C)C1=O", "note": "[Compound 499] ([NMeA]I[Sar][Sar][NMePhe(4-Cl)][Sar][Phe(3-Cl)]L[NMeF]LD-Pyrrolidide; lactam N-11)", "pIC50": 7.07}, {"smiles": "CCOCCN1CC(=O)N(C)CC(=O)N(C)[C@@H](CC2CCCCC2)C(=O)N(C)CC(=O)N[C@@H](CCc2ccc(C(F)(F)F)c(Cl)c2)C(=O)N2CCC[C@H]2C(=O)NC2(CCCC2)C(=O)N(C)[C@@H](C(C)C)C(=O)N[C@H](C)CC(=O)N(C)[C@@H](CC(C)C)C(=O)N[C@@H]([C@@H](C)CC)C1=O", "note": "[Compound 329] (cyclo([Ac5c][NMeV][d(β3hA)][NMeL]I[Gly(N-(CH2)2OEt)][Sar][NMeCha][Sar][hPhe(3-Cl-4-CF3)]P))", "pIC50": 7.40}, {"smiles": "CC[C@H](C)[C@@H]1NC(=O)[C@H](C)N(C)C(=O)C[C@@H](C)N(C)C(=O)[C@H](CC(C)C)NC(=O)C(C)(C)N(C)C(=O)[C@H](CC(C)C)NC(=O)[C@H](CCc2ccc(C(F)(F)F)c(Cl)c2)NC(=O)[C@@H](C)N(C)C(=O)[C@H](CC2CCCCC2)N(C)C(=O)[C@@H]2CCN2C(=O)CN(C)C1=O", "note": "[Compound 1378] (cyclo([Aze][NMeCha][dNMeA][hPhe(3-Cl-4-CF3)]L[NMeAib]L[NMedβ3hAla][NMeA]I[Sar]))", "pIC50": 6.42}, {"smiles": "CCCC[C@H]1C(=O)N(C)[C@H](C(=O)N2CCCCC2)CC(=O)N(C)[C@@H](CC(C)C)C(=O)N[C@@H]([C@@H](C)CC)C(=O)N(C)CC(=O)N(C)CC(=O)N(C)[C@@H](CC2CCCCC2)C(=O)N(C)CC(=O)N[C@@H](CCc2ccc(C(F)(F)F)c(Cl)c2)C(=O)N2CCC[C@H]2C(=O)NC2(CCCC2)C(=O)N1C", "note": "[Compound 1815] ([NMeL]I[Sar][Sar][NMeCha][Sar][hPhe(3-Cl-4-CF3)]P[Ac5c][NMeNle][NMeD]-Piperidide; lactam N-11)", "pIC50": 8.60}]}]}
